Read-outs that look alike come from different tables or passages of the source.
Columns and labels:
HeLa Cells [1] = assay: Cell Growth Inhibition, HeLa cells (trypan blue exclusion); type: cell-based; conditions: for IC50: Homo sapiens, HeLa, 48 h after treatment, 50% of vehicle-treated cell growth
Description: (§1) HeLa (ATCC: CCL-2), A549-human lung carcinoma (ATCC: CCL-185), Lewis lung carcinoma (LLC) (ATCC: CRL-1642), and melanoma cells (ATCC: CRL-11147) were cultured in DMEM (Hyclone) supplemented with 10% fetal bovine serum (Hyclone) and 50 μg/mL gentamicin sulfate (Invitrogen). Jurkat leukemia cells were cultured in RPMI (Hyclone) supplemented with 10% fetal bovine serum and 50 μg/mL gentamicin sulfate. Human mammary epithelial cells were grown in mammary epithelial basal medium (Lonza) supplemented according to manufacturer's protocol. All cell lines were maintained at 5% CO2 at 37° C.
(§2) All cell lines were plated at 1×10^5/mL in the appropriate medium. For suspension cells, the tested compound was added immediately to the medium, whereas the tested compound treatment was initiated the following day for adherent cell lines. For overexpression studies, HeLa cells were transiently transfected with empty vector or vector containing wild type choline kinase twenty-four hours prior to addition of increasing concentrations of CK37. Cells were then collected 48 h after treatment, and cell number and viability were determined by trypan blue exclusion. IC50s were calculated at the tested compound concentration needed for 50% of vehicle-treated cell growth (see Table 4). The data represented are the mean±STD from triplicate measurements from three independent experiments.

Jurkat Cells = assay: Cell Growth Inhibition, Jurkat cells (trypan blue exclusion); type: cell-based; conditions: for IC50: Homo sapiens, Jurkat, 48 h after treatment, 50% of vehicle-treated cell growth
Description: as §1, §2

[2] = system: choline kinase (HeLa lysates); assay: Choline kinase activity assay of HeLa cell lysates; type: biochemical; conditions: HeLa cell lysate; FIG. 7
Description: Choline kinase activity was assayed as described previously in Hernandez-Alcoceba et al. “Choline kinase inhibitors as a novel approach for antiproliferative drug design,” Oncogene 1997, 15:2289-2301, the disclosure of which is incorporated herein by this reference. For HeLa cell lysate, equal volume of lysate was incubated in the presence or absence of the tested compound in kinase assay buffer (100 mM Tris-HCl, 100 mM MgCl2, 10 mM ATP, 200 μM choline, and 2 μM methyl[^14C]-choline chloride (50-60 μCi, mmol). Reactions were carried out at 37° C. for one hour and immediately stopped by addition of TCA (Trichloroacetic Acid) to a final concentration of 16%. The TCA soluble fraction was then washed 3× with four volumes of water saturated ethyl ether, and dried under vacuum. Metabolites were separated by thin layer chromatography using 60 Å silica gel plates and a liquid phase consisting of 0.9% NaCl:methanol:ammonium hydroxide (50:70:5; V:V:V). Radioactive images were resolved by PhosphorImager screening and densitometry was performed using Image Quant software.

choline kinase = conditions: reported; cited from earlier work
[3] = system: HT-29 human adenocarcinoma cells; conditions: reported; cited from earlier work
[4] = system: HeLa cell endogenous choline kinase; conditions: reported; cited from earlier work
[5] = reported; cited from earlier work
[6] = system: endogenous choline kinase (HeLa cells); assay: Choline kinase activity in whole HeLa cells (radiolabeled choline); type: cell-based
Description: For HeLa cell labeling, cells were seeded at 1×10^5 cells/mL and incubated with increasing concentrations of the tested compound for 48 hours. Methyl[^14C]-choline chloride was added 24 hours before cell harvest, and cells were extracted and analyzed as described above. Densitometry units were normalized to total protein levels for each sample.

[7] = system: various neoplastic cell lines from both solid and hematologic origins; assay: Cell Growth Inhibition, various neoplastic cell lines; type: cell-based; conditions: all tumor cell lines investigated; FIG. 3A; read-out: IC50 values of cell growth suppression
Description: as §1, §2

[8] = system: primary mammary epithelial cells (HMEC); assay: Cell Growth Inhibition, primary mammary epithelial cells; type: cell-based, human; conditions: FIG. 3B
Description: as §1, §2

[9] = system: MDA-MB-231 mammary carcinoma cells; assay: Cell Growth Inhibition, MDA-MB-231 cells; type: cell-based; conditions: FIG. 3B
Description: as §2

HeLa Cells [10] = assay: Soft agar colony formation; type: cell-based; conditions: 5 μM CK37; 14 days; Control: 2506±158
Description: HeLa cells were plated at a density of 25×10^3 cells per 60-mm plate with 3 mL bottom agar (0.6%) and 2 mL top agar (0.3%) in normal growth medium. Cells were fed every three days by addition of a new layer of top agar which contained increasing concentrations of the tested compound. After 14 days of growth, colonies were counted in random from 1 cm squared sections of each plate.

Lewis Lung Carcinoma = assay: Mouse tumors: Lewis lung carcinoma in C57B1/6 mice; type: in vivo; conditions: 0.08 mg/g i.p. daily for nine days
Description: Exponentially growing Lewis lung carcinoma cells were collected, washed twice, and resuspended in PBS (1×10^7/mL). C57B1/6 female mice (20 g) were injected s.c. with 0.1 mL of the suspension. Body weight and tumor growth were monitored daily throughout the study. Tumor masses were determined by measurement with Vernier calipers using the formula: mass (mg)=[width^2 (mm)×length (mm)]/2. Mice with established tumors (between 130 and 190 mg) were randomized into vehicle control or the tested compound treated groups. Vehicle control groups received i.p. injections of 50 μL DMSO, whereas treated groups received 0.08 mg/g the tested compound in 50 μL DMSO at the indicated time points. All protocols were approved by the University of Louisville Institutional Animal Care and Use Committee.

[11] = Tolerability of intraperitoneal CK37 in C57B1/6 mice; type: in vivo
Description: In order to investigate some possible non-toxic doses of CK37 for use in vivo, we intraperitoneally injected C57B1/6 mice with 0.06, 0.07, and 0.08 mg/g of CK37. […] C57B1/6 mice bearing Lewis Lung Carcinoma xenografts (mean baseline mass=143±14 mg) were given intraperitoneal injections of 0.08 mg/g CK37 daily for nine days. As shown in FIG. 5A-B, CK37 administration suppressed tumor growth by 48% compared to the vehicle control group.

SMILES: CSc1ccc(C=CC(=O)OCC(=O)NC(Cc2ccccc2)C(C)=O)cc1 (stereo not shown) [C]
- IC50 (HeLa Cells [1]): 15.2 µM
- IC50 (Jurkat Cells): > 10 µM

SMILES: CC(OC(=O)CCC(=O)c1cccs1)C(=O)Nc1cccc2ccccc12 (stereo not shown) [G]
- IC50 (HeLa Cells [1]): > 25 µM
- IC50 (Jurkat Cells): > 10 µM

SMILES: COc1ccc(OCC(=O)OC(C)C(=O)Nc2cccc3ccccc23)cc1 (stereo not shown) [CP6]
- HeLa cell proliferation (HeLa Cells [1]; FIG. 8): selectively suppresses HeLa cell proliferation
- IC50 (HeLa Cells [1]): 12.6 µM
- Jurkat cell proliferation (Jurkat Cells; FIG. 9): selectively suppresses Jurkat cell proliferation
- IC50 (Jurkat Cells): 9.8 µM
- endogenous choline kinase activity [2]: dose-dependent decrease in endogenous choline kinase activity

SMILES: CCc1ccc(C(=O)CN2C(=O)NC(CC)(c3ccccc3)C2=O)cc1 (stereo not shown) [E]
- IC50 (HeLa Cells [1]): > 25 µM
- IC50 (Jurkat Cells): > 10 µM

SMILES: CCC1(c2ccccc2)NC(=O)N(CC(=O)c2ccc(OC)cc2OC)C1=O (stereo not shown) [A]
- IC50 (HeLa Cells [1]): > 25 µM
- IC50 (Jurkat Cells): > 10 µM

SMILES: COCCNC(=O)CN1C(=O)NC(C)(c2ccc(C)cc2)C1=O (stereo not shown) [M]
- IC50 (HeLa Cells [1]): > 25 µM
- IC50 (Jurkat Cells): > 10 µM

SMILES: CCC(=O)c1ccc(OCC(=O)OCc2csc(-c3ccc(OC)cc3)n2)cc1 [I]
- IC50 (HeLa Cells [1]): > 25 µM
- IC50 (Jurkat Cells): > 10 µM

SMILES: CCCNC(=O)COC(=O)CN1C(=O)N[C@@](C)(c2ccc(C)cc2)C1=O [H]
- IC50 (HeLa Cells [1]): > 25 µM
- IC50 (Jurkat Cells): > 10 µM

SMILES: C=CCn1c(COc2cccc(C)c2)nnc1SCc1ncc(-c2ccccc2)o1 [O]
- IC50 (HeLa Cells [1]): > 25 µM
- IC50 (Jurkat Cells): > 10 µM

SMILES: C[C@@]1(c2ccc3ccccc3c2)NC(=O)N(CC(=O)OCC(=O)NCCC#N)C1=O [B]
- IC50 (HeLa Cells [1]): > 25 µM
- IC50 (Jurkat Cells): > 10 µM

SMILES: COc1ccccc1COC(=O)CN1C(=O)N[C@@](C)(c2ccc(C)cc2)C1=O [P]
- IC50 (HeLa Cells [1]): 18.3 µM
- IC50 (Jurkat Cells): > 10 µM

SMILES: COc1ccccc1CNC(=O)CN1C(=O)NC(C)(c2ccc(C)cc2)C1=O (stereo not shown) [K]
- IC50 (HeLa Cells [1]): > 25 µM
- IC50 (Jurkat Cells): > 10 µM

SMILES: CN(C)c1cc[n+](Cc2ccc(CCCCc3ccc(C[n+]4ccc(N(C)C)cc4)cc3)cc2)cc1.[Br-].[Br-] [MN58B]
- IC50 (choline kinase): 4.2 µM
- IC50 [3]: 0.5 µM
- inhibition in HeLa cell endogenous choline kinase [4]: 75%
- dose limiting toxicity [5]: 5 to 10 mg/kg

SMILES: CCc1ccc(-c2nnc(SCC(=O)Nc3cc(C)cc(C)c3)[nH]2)cc1 [CK37, N-(3,5-dimethylphenyl)-2-[[5-(4-ethylphenyl)-1H-1,2,4-triazol-3-yl]sulfanyl]acetamide]
- IC50 (HeLa Cells [1]): 4.2 µM
- IC50 (Jurkat Cells): 5.4 µM
- inhibition of endogenous choline kinase activity in whole cells ([6]; 10 μM, 48 hours, FIG. 2B): 61.7%±9.7%
- decrease in HeLa cell endogenous choline kinase ([6]; about the same concentration as MN58B, somewhat different conditions): 60%
- IC50 [7]: 5 to 10 µM
- CK37 concentration compared for growth suppression [8]: 10 µM
- CK37 concentration compared for growth suppression ([9]; MDA-MB-231): 0.5 µM
- difference in selectivity against neoplastic versus primary cell growth ([9]; MDA-MB-231 versus HMEC): 20 fold
- number of soft agar colonies (HeLa Cells [10]): 360±77
- tumor growth suppression compared to the vehicle control group (Lewis Lung Carcinoma): 48%
- wet weight of resected tumors at the end of treatment (Lewis Lung Carcinoma; Vehicle: 1109±107 mg, p<0.01): 648 ± 96 mg
- clinical signs or symptoms of distress ([11]; 0.06, 0.07, and 0.08 mg/g intraperitoneally): no clinical signs or symptoms of distress
- dose limiting toxicity ([11]; mice): > 80 mg/kg

SMILES: COc1cc(C(C)=O)ccc1OCC(=O)NCc1ccc(C)cc1 [J]
- IC50 (HeLa Cells [1]): > 25 µM
- IC50 (Jurkat Cells): > 10 µM

Reference: patent US9381172B2, “Small molecule choline kinase inhibitors, screening assays, and methods for treatment of neoplastic disorders” (UNIVERSITY OF LOUISVILLE RESEARCH FOUNDATION, INC., priority 2009, dated 2016)
